Test [1] has as its target T1, IL-17A/F (Homo sapiens, UniProt Q16552+Q96PD4).
T1 sequence (Q16552 24-155): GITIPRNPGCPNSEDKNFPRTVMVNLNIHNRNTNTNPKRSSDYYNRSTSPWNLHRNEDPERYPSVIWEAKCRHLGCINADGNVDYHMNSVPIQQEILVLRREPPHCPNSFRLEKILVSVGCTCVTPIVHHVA
T1 sequence (Q96PD4 31-163): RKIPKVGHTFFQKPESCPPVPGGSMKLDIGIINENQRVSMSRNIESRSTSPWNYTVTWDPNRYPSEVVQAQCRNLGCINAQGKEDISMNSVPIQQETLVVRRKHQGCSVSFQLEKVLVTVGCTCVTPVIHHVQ
The experiment in a line: IL-17A/F HEK-Blue Cell Assay. In kind it is cell-based. The note with it: HEK-Blue IL-17 reporter cells, IL-17A/F stimulation, 20 hours, SEAP readout; for IC50: read-out: IL17AF HEK Blue pIC50 (converted). As for the experimental part:
(§1) The HEK-Blue IL-17 reporter cell line (Fisher #NC1408637) was used for cell-based IL-17A/F inhibition assays. Cells were grown and prepared for assays according to the manufacturer's instructions. This cell line consists of HEK 293 cells that were designed to expressed IL-17RA, IL-17R^C, and the ActI adapter molecule, the combination of which, when stimulated by IL-17A/A activates a NFκB promoter and drives expression of a recombinant Secreted Alkaline Phosphatase (SEAP) geneprotein. Media from the cells is then added to a development reagent (Quanti-Blue Substrate, Fisher #NC9711613), and read at A630.
Compounds were titrated in DMSO and added to the cells immediately before adding IL-17A/A (Custom from R&D systems, untagged IL-17A/F+BSA as a carrier protein). The cells, compound, and IL-17A/A were then incubated for 20 hours before media was removed for SEAP analysis. The resulting inhibition curve was then analyzed using a Dotmatics screening protocol, and IC50 values were determined using a 4-parameter nonlinear fit. DMSO was added to a universal final concentration of 0.1% to optimize background.

For test [2], the target named is T2, IL-17A/A (Homo sapiens, UniProt Q16552).
T2 sequence (Q16552 24-155): T1 sequence (Q16552 24-155)
In words: IL-17A/A HEK-Blue Cell Assay. In kind it is cell-based. As to conditions: HEK-Blue IL-17 reporter cells, IL-17A/A stimulation, 20 hours, SEAP readout; for IC50: read-out: IL17 AA HEK-5 pIC50 (converted). As for the experimental part: as §1, with “IL-17A/A” for “IL-17A/F”, “IL-17R^A,” for “IL-17RA,”, “protein.” for “geneprotein.”
Compounds were titrated in DMSO, with a top final compound concentration of 10 uM and added to the cells immediately before adding IL-17A/A (Genscript #Z03228). The cells, compound, and IL-17A/A were then incubated for 20 hours before media was removed for SEAP analysis. The resulting inhibition curve was then analyzed using a Dotmatics screening protocol, and IC50 values were determined using a 4-parameter nonlinear fit. DMSO was added to a universal final concentration of 0.1% to optimize background. IL-17A/A inhibition data is provided in Table 1 for selected compounds.

In the case of `CCOC(C)C(=O)N[C@@H](C(=O)N1CCN(C)CC1)[C@@H](C)c1ccc(NC(=O)[C@@H](NC(=O)c2ccnn2CC)C(C2CC2)C2CC2)c(F)c1` (single isomer, unassigned) [Compound 329], the IC50 in test [1] is 100 to 10000 nM; in test [2], 10 to 100 nM.

On to `CCn1nccc1C(=O)N[C@H](C(=O)Nc1ccc([C@H](C)[C@@H](NC(=O)C(C)CC(F)(F)F)C(=O)N2CCN(C)CC2)cc1F)C(C1CC1)C1CC1` (single isomer, unassigned) [Compound 331], for which the IC50 was 100 to 10000 nM in test [1] and 10 to 100 nM in test [2].

On to `CCn1nccc1C(=O)N[C@H](C(=O)Nc1ccc([C@H](C)[C@@H](NC(=O)C(C)CC(F)(F)F)C(=O)N2CCN(C)CC2)cc1F)C(C1CC1)C1CC1` (single isomer, unassigned) [Compound 332], for which, in test [1], the IC50 was 10 to 100 nM. In test [2], the “IL17 AA HEK-5 pIC50” value is on record as “B (8>B≥7 as B)”.

For `CCn1nccc1C(=O)N[C@H](C(=O)Nc1ccc([C@H](C)[C@@H](NC(=O)C(C)C(F)(F)F)C(=O)N2CCN(C)CC2)cc1F)C(C1CC1)C1CC1` (single isomer, unassigned) [Compound 333], the IC50 in test [1] was 100 to 10000 nM; in test [2], 10 to 100 nM.

`CCC(OC)C(=O)N[C@@H](C(=O)N1CCN(C)[C@H](C)C1)[C@@H](C)c1ccc(NC(=O)[C@@H](NC(=O)c2ccnn2CC)C(C2CC2)C2CC2)c(F)c1` (single isomer, unassigned) [Compound 335]: the IC50 was 100 to 10000 nM in test [1] and 10 to 100 nM in test [2].

As to `CCC(OC)C(=O)N[C@@H](C(=O)N1CCN(C)[C@H](C)C1)[C@@H](C)c1ccc(NC(=O)[C@@H](NC(=O)C2(F)CC2)C(C2CC2)C2CC2)c(F)c1` (single isomer, unassigned) [Compound 336], the IC50 in test [1] is 100 to 10000 nM; in test [2], 10 to 100 nM.

Consider `CCC(OC)C(=O)N[C@@H](C(=O)N1CCN(C)[C@H](C)C1)[C@@H](C)c1ccc(NC(=O)[C@@H](NC(=O)C2(F)CC2)C(C2CC2)C2CC2)c(F)c1` (single isomer, unassigned) [Compound 337], for which the “IL17AF HEK Blue pIC50” value in test [1] was “C (7>C≥5)”. Moreover, the IC50 in test [2] was under 10 nM.

As to `CCC(OC)C(=O)N[C@@H](C(=O)N1CCN(C)[C@H](C)C1)[C@@H](C)c1ccc(NC(=O)[C@@H](NC(=O)c2ccnn2CC)C(C2CC2)C2CC2)c(F)c1` (single isomer, unassigned) [Compound 338], the IC50 in test [1] was 10 to 100 nM; in test [2], under 10 nM.

For the compound `CCC(OC)C(=O)N[C@@H](C(=O)N1CCN(C)CC1)[C@@H](C)c1ccc(NC(=O)[C@@H](NC(=O)c2ccnn2CC)C(C2CC2)C2CC2)c(F)c1` (single isomer, unassigned) [Compound 339], the IC50 in test [1] was 100 to 10000 nM; in test [2], 10 to 100 nM.

As for `CCC(OC)C(=O)N[C@@H](C(=O)N1CCN(C)CC1)[C@@H](C)c1ccc(NC(=O)[C@@H](NC(=O)c2ccnn2CC)C(C2CC2)C2CC2)c(F)c1` (single isomer, unassigned) [Compound 340], the results for the IC50 in test [1] and in test [2] were 10 to 100 nM and under 10 nM, respectively.

With `CCn1nccc1C(=O)N[C@H](C(=O)Nc1ccc([C@H](C)[C@@H](NC(=O)C(C)Cc2cc(O)no2)C(=O)N2CCN(C)[C@H](C)C2)cc1F)C(C1CC1)C1CC1` (single isomer, unassigned) [Compound 343], the IC50 in test [1] is 100 to 10000 nM; in test [2] it was 10 to 100 nM.

`CCn1nccc1C(=O)N[C@H](C(=O)Nc1ccc([C@H](C)[C@@H](NC(=O)C(C)Cc2cc(O)no2)C(=O)N2CCN(C)[C@H](C)C2)cc1F)C(C1CC1)C1CC1` (single isomer, unassigned) [Compound 344]: the values for the IC50 in test [1] and in test [2] were 10 to 100 nM and under 10 nM, respectively.

For `CCC(=O)NC(C(=O)N1CCN(C)CC1)C(c1ccc(NC(=O)[C@@H](NC(=O)c2ccnn2CC)C(C2CC2)C2CC2)c(F)c1)C(F)(F)F` (single isomer, unassigned) [Compound 350], the IC50 in test [1] and in test [2] was 100 to 10000 nM each time.

As for `CCn1nccc1C(=O)N[C@H](C(=O)Nc1ccc(C(C(NC(=O)[C@H](C)OC)C(=O)N2CCN(C)[C@H](C)C2)C(F)(F)F)cc1F)C(C1CC1)C1CC1` (single isomer, unassigned) [Compound 351], the IC50 in test [1] and in test [2] was 100 to 10000 nM in each case.

Consider `CCC(=O)NC(C(=O)N1CCN(C)CC1)C(c1ccc(NC(=O)[C@@H](NC(=O)c2ccnn2CC)C(C2CC2)C2CC2)c(F)c1)C(F)(F)F` (single isomer, unassigned) [Compound 352], for which the “IL17AF HEK Blue pIC50” value in test [1] is recorded as “C (7>C≥5)”. Further, the IC50 in test [2] was 100 to 10000 nM.

As to `CCn1nccc1C(=O)N[C@H](C(=O)Nc1ccc(C(C(NC(=O)[C@H](C)OC)C(=O)N2CCN(C)[C@H](C)C2)C(F)(F)F)cc1F)C(C1CC1)C1CC1` (single isomer, unassigned) [Compound 353], the IC50 in test [1] is 10 to 100 nM; in test [2], under 10 nM.

Consider `CCn1nccc1C(=O)N[C@H](C(=O)Nc1ccc(C(C(NC(=O)[C@H](C)OC)C(=O)N2CCN(C)[C@H](C)C2)C(F)(F)F)cc1F)C(C1CC1)C1CC1` (single isomer, unassigned) [Compound 355], for which the IC50 in test [1] and in test [2] was 100 to 10000 nM each time.

As to `CCC(=O)NC(C(=O)N1CCN(C)CC1)C(c1ccc(NC(=O)[C@@H](NC(=O)c2ccnn2CC)C(C2CC2)C2CC2)c(F)c1)C(F)(F)F` (single isomer, unassigned) [Compound 356], in test [1], the “IL17AF HEK Blue pIC50” value was “C (7>C≥5)”. In test [2], the IC50 was 10 to 100 nM.

`CCn1nccc1C(=O)N[C@H](C(=O)Nc1ccc(C(C(NC(=O)[C@H](C)OC)C(=O)N2CCN(C)[C@H](C)C2)C(F)(F)F)cc1F)C(C1CC1)C1CC1` (single isomer, unassigned) [Compound 357]: the IC50 in test [1] and in test [2] was 100 to 10000 nM in each case.

For `CCC(=O)N[C@@H](C(=O)N1CCN(C)CC1)[C@@H](C)c1ccc(NC(=O)[C@@H](NC(=O)c2ccnn2CC)C(C2CC2)C2CC2)c(F)c1` [Compound 200], the IC50 in test [1] and in test [2] was 10 to 100 nM each time.

In the case of `CCC(=O)N[C@@H](C(=O)N1CCN(C)CC1)[C@@H](C)c1ccc(NC(=O)[C@@H](NC(=O)c2ccnn2CCF)C(C2CC2)C2CC2)c(F)c1` [Compound 216], the IC50 in test [1] and in test [2] was 10 to 100 nM in each case.

For the compound `CCn1nccc1C(=O)N[C@H](C(=O)Nc1ccc([C@H](C)[C@@H](NC(=O)[C@H](C)OC)C(=O)N2CCN(C)[C@H](C)C2)cc1F)C(C1CC1)C1CC1` [Compound 221], the results for the IC50 in test [1] and in test [2] were 10 to 100 nM and under 10 nM, respectively.

Consider `CCn1nccc1C(=O)N[C@H](C(=O)Nc1ccc([C@H](C)[C@@H](NC(=O)[C@H](C)OC)C(=O)N2CCN(C)CC2)cc1F)C(C1CC1)C1CC1` [Compound 222], for which the IC50 in test [1] is 10 to 100 nM; in test [2], under 10 nM.

`CCC(=O)N[C@@H](C(=O)N1CCN(C)[C@H](C)C1)[C@@H](C)c1ccc(NC(=O)[C@@H](NC(=O)c2nonc2C)C(C2CC2)C2CC2)c(F)c1` [Compound 246]: the IC50 in test [1] is 100 to 10000 nM; in test [2] it was under 10 nM.

`CCC(=O)N[C@@H](C(=O)N1CCC[C@H](N)C1)[C@@H](C)c1ccc(NC(=O)[C@@H](NC(=O)c2ccnn2CC)C(C2CC2)C2CC2)c(F)c1` [Compound 267]: the values for the IC50 in test [1] and in test [2] were 100 to 10000 nM and 10 to 100 nM, respectively.

Regarding `CCOC(=O)N[C@@H](C)C(=O)N[C@@H](C(=O)N1CCN(C)CC1)[C@@H](C)c1ccc(NC(=O)[C@@H](NC(=O)C2(F)CC2)C(C2CC2)C2CC2)c(F)c1` [Compound 269], the IC50 was 100 to 10000 nM in test [1] and under 10 nM in test [2].

As to `C[C@@H](c1ccc(NC(=O)[C@@H](NC(=O)C2(F)CC2)C(C2CC2)C2CC2)c(F)c1)[C@@H](NC(=O)N(C)C1CC1)C(=O)N1CCN(C)CC1` [Compound 270], the IC50 was 100 to 10000 nM in test [1] and under 10 nM in test [2].

The values are drawn from US20250177383A1, “DI-CYCLOPROPYL BASED IL-17A MODULATORS AND USES THEREOF” (DICE ALPHA, INC., priority 2022, published 2025).
